Where “and” joins values, the source holds several entries; their conditions need not be identical. Identical values can stand only once. Entries after “also recorded” stand apart in the source; their conditions may differ. Like-named read-outs stand apart in the source and are kept apart here.
Tests used:
[1] = tested on: human skin fibroblast cell line (normal human dermal fibroblasts, neonatal); settings: for Cell proliferating activity on human skin fibroblasts (in words): 1×10^−4 M to 1×10^−6 M vs control; for Mean optical density (OD) at 490 nm, cell proliferation / Median optical density (OD) at 490 nm, cell proliferation: 28 hours, serum-free DMEM, n=5
Experimental: Statistical analyses of data were performed using one-way ANOVA. P<0.05 is considered significant, while P<0.0001 is considered extremely significant and P<0.001 is considered as very very significant.

[2] = tested on: human skin keratinocyte cell line (normal human epidermal keratinocytes, neonatal); assay: Proliferation of human skin keratinocytes (Cell Titer 96, absorbance 490 nm); type: cell-based; settings: for Cell proliferating activity on human keratinocytes (in words): 1×10^−4 M to 1×10^−6 M vs control; for Mean optical density (OD) at 490 nm, cell proliferation / Median optical density (OD) at 490 nm, cell proliferation: 48 hours, KBM, n=5
Experimental: In addition, 100 μl of vehicle KBM was added to 5 wells as control. […] The spectrophotometric absorbance of each well was read at 490 nm.

[3] = tested on: collagen production in the human skin fibroblast cell line; assay: Collagen production in human skin fibroblasts (Takara EIA kit MK101, absorbance 450 nm); type: cell-based; settings: for Stimulation of collagen production (in words): 1×10^−4 M to 1×10^−6 M vs control; for Mean optical density (OD) at 450 nm, collagen production / Median optical density (OD) at 450 nm, collagen production: 48 hours, n=2
Experimental: The cells were first grown in a 96-well assay system using Dulbecco's Modified Eagle's Medium (DMEM) with 10% fetal bovine serum (FBS) both purchased from Sigma Chemical Co, St. Louis, Mo. Serum-free DMEM was used as a control.
The assay was done by using the recommended 20 ul of the supernatant from each well of the 96-well plate. Standard buffer and stop solutions were freshly prepared before running the assay. 100 ul of antibody-POD conjugate solution (supplied with the kit) was added into the wells using pre antibody coated 96 well plate (supplied with the kit). 20 ul of standard and test solutions (from the other 96-well plate containing fibroblasts) were added to appropriate wells. Plate was mixed gently, sealed and incubated for three hrs. at 37° C.
After incubation each well was washed carefully four times with PBS buffer (400 ul). All the wells were completely emptied at the end of washing from any liquid.
100 ul of substrate solution (hydrogen peroxide and tetramethylbenzidine in a buffer solution, supplied with the kit) was added to each well and the plate was incubated for 15 minutes. At this point 100 ul of stop solution (freshly prepared 1N H2SO4) was added to each well in the same order as substrate. The plate was gently mixed and absorbance was read at 450 nm.

[4] = tested on: fibronectin production in the human skin fibroblast cell line; assay: Fibronectin production in human skin fibroblasts (Takara EIA kit MK115, absorbance 450 nm); type: cell-based; settings: for Stimulation of fibronectin production (in words): 1×10^−4 M to 1×10^−6 M vs control; for Mean optical density (OD) at 450 nm, fibronectin production / Median optical density (OD) at 450 nm, fibronectin production: 48 hours, n=2
Experimental: The cells were first grown in a 96-well assay system using Dulbecco's Modified Eagle's Medium (DMEM) with 10% fetal bovine serum (FBS) both purchased from Sigma Chemical Co, St. Louis, Mo. Serum-free DMEM was used as a control. […] The fibronectin assay was performed using the recommended 100 μl of the supernatant from each well of the 96-well plate. Standard buffer and stop solutions were freshly prepared before running the assay. A pre-antibody-coated 96 well plate (provided with the kit) was used to transfer the test samples and control. The plate was mixed, sealed and incubated for 1 hour at 37° C. All the wells were washed after removing sample solutions, 3 times (300 μl) with washing buffer. 100 ul of antibody-POD conjugate solution was added into the wells. Plate was mixed, sealed and incubated for one hour at 37° C. Solutions were removed and the wells were washed 3 times with washing buffer. All the wells were completely emptied at the end of washing from any liquid. 100 μl of substrate solution (hydrogen peroxide and tetramethylbenzidine in a buffered solution) was added to each well and the plate was incubated at room temperature for 15 minutes. 100 μl of stop solution (freshly prepared 1N H2SO4) was added to each well in the same order as substrate. The plate was gently mixed and absorbance was read at 450 nm.

Swiss Albino mice = assay: Wound healing, full thickness skin wounds (3 mm biopsy punch) in mice; type: in vivo, mouse; settings: topical 5 μl of 0.2% solution, 5 doses Day 0-2, vs control (WFI)
Experimental: Twenty, 12-week old Swiss Albino mice were anesthetized with a ketamine/acepromazine cocktail and subjected to four full thickness skin wounds on the dorsolateral surface. […] Jasmonic acid (100 mg) was dissolved in 2 ml ethanol. 200 μl of the resulting solution was then added to 4.8 ml of WFI. Four wounds were made on either side of the spinal column using a 3 mm biopsy punch. To make the wounds, the skin was first tented and the punch was driven through the tented skin to generate both wounds with a single stroke. The upper left quadrant wound site of the animal was assigned to receive the control solution (WFI). […] The wound sites were dosed 5 times (twice on Day 0, Day 1, and once on Day 2). All wounds were treated with 5 μl of test or control solutions. Wounds were allowed to absorb the solutions for 5 minutes before returning the animals to their cages for recovery. All the animals were housed singly. The in-life phase for the animals is 5 days. Each day the wounds on the mice were traced onto glass slides and measured using calipers accurate to the nearest 0.1 mm. Photographs of the wounds were also taken daily for the duration of the study to measure wound size. Means and the standard deviations of the wound diameters for each day were calculated for the healing profile. The effects of the test substances on wound healing were compared to the effects of the control (WFI).

[5] = tested on: healthy female volunteers; assay: Dansyl chloride cell renewal study (stratum corneum renewal time); type: in vivo, human; settings: topical twice daily for two weeks
From the text: The stratum corneum renewal time is the time taken for the whole thickness of the stratum corneum to be exfoliated and replaced by new cells from the dividing epidermis. This renewal time is a fundamental indicator of skin health. […] See Jansen L H, Hojyo-Tomoko M T, Kligman A M., Improved fluorescence staining technique for estimating turnover of the human stratum corneum, Br J Dermatol., 90, 9-12, 1974; Ridge B D, Batt M D, Palmer H E, Jarrett A, The dansyl chloride technique for stratum corneum renewal as an indicator of changes in epidermal mitotic activity following topical treatment., Br J Dermatol., 118, 167-74, 1988; Grove G L, Kligman A M, Age-associated changes in human epidermal cell renewal., J Geron., 38, 137-142, 1983. The time required for the dye to disappear is therefore an indication of the turnover time of the stratum corneum. Therefore, any differences in the time required for the dye to disappear from treated and non-treated sites can be considered to be an expression of that product's ability to enhance epidermal renewal.
A dansyl chloride cell renewal study was conducted in healthy female volunteers ranging from 43-64 years of age. The study consisted of a two-week treatment period during which time the products were applied topically twice daily, including on weekend days, to the test sites. The area of application was designated, approximately 5 cm×10 cm on the upper inner arm. The other arm served as a control with no product application. […] Eight females received jasmonic acid and seven females received gibberellic acid.
The time required for a marker dye to disappear was used as the measure of cell renewal rate.

| Compound | Cell proliferating activity on human skin fibroblasts (in words) [1] | Mean optical density (OD) at 490 nm, cell proliferation ([1]; 1×10^−4 M) | Mean optical density (OD) at 490 nm, cell proliferation ([1]; 1×10^−5 M) | Median optical density (OD) at 490 nm, cell proliferation ([1]; 1×10^−5 M) | Mean optical density (OD) at 490 nm, cell proliferation ([1]; 1×10^−6 M) | Median optical density (OD) at 490 nm, cell proliferation ([1]; 1×10^−6 M) | Mean optical density (OD) at 490 nm, cell proliferation ([2]; 1×10^−4 M) | Median optical density (OD) at 490 nm, cell proliferation ([2]; 1×10^−4 M) | Mean optical density (OD) at 490 nm, cell proliferation ([2]; 1×10^−5 M) | Median optical density (OD) at 490 nm, cell proliferation ([2]; 1×10^−5 M) | Mean optical density (OD) at 490 nm, cell proliferation ([2]; 1×10^−6 M) | Median optical density (OD) at 490 nm, cell proliferation ([2]; 1×10^−6 M) | Stimulation of collagen production (in words) [3] | Mean optical density (OD) at 450 nm, collagen production ([3]; 1×10^−4 M) | Median optical density (OD) at 450 nm, collagen production ([3]; 1×10^−4 M) | Mean optical density (OD) at 450 nm, collagen production ([3]; 1×10^−5 M) | Median optical density (OD) at 450 nm, collagen production ([3]; 1×10^−5 M) | Mean optical density (OD) at 450 nm, collagen production ([3]; 1×10^−6 M) | Median optical density (OD) at 450 nm, collagen production ([3]; 1×10^−6 M) | Stimulation of fibronectin production (in words) [4] | further results |
| --- | --- | --- | --- | --- | --- | --- | --- | --- | --- | --- | --- | --- | --- | --- | --- | --- | --- | --- | --- | --- | --- |
| CC(=O)Oc1ccccc1C(=O)O [acetylsalicylic acid] | strong cell proliferating activity at all concentrations; also recorded: all concentrations of acetylsalicylic acid had a significant effect on cell growth | 0.5406 | 0.6276 | 0.6270 | 0.6590 | 0.6590 |  |  |  |  |  |  |  |  |  |  |  |  |  |  | Median optical density (OD) at 490 nm, cell proliferation ([1]; 1×10^−4 M): 0.5290 |
| C=C1C[C@]23C[C@@]1(O)CC[C@H]2[C@@]12C=C[C@H](O)[C@@](C)(C(=O)O1)[C@H]2[C@@H]3C(=O)O [gibberellic acid] |  |  |  |  |  |  | 0.6512 | 0.6510 | 0.8184 | 0.8210 | 0.7854 | 0.7900 | more profound, particularly at lower, rather than higher, concentrations; also recorded: lower concentrations of gibberellic acid had the most profound effect | 0.7780 | 0.7780 | 0.8365 | 0.8365 | 0.8630 | 0.8630 | effective for stimulating fibronectin production in human fibroblasts; also recorded: Both low and high concentrations of gibberellic acid stimulated fibronectin production | Cell proliferating activity on human keratinocytes (in words) [2]: all concentrations of gibberellic acid had a significant effect on cell growth; Cell proliferating activity on human keratinocytes (in words) ([2]; listed as giberrellic acid): strong cell proliferating activity at all concentrations; Mean optical density (OD) at 450 nm, fibronectin production ([4]; 1×10^−4 M): 0.2150; Median optical density (OD) at 450 nm, fibronectin production ([4]; 1×10^−4 M): 0.2150; Mean optical density (OD) at 450 nm, fibronectin production ([4]; 1×10^−5 M): 0.2090; Median optical density (OD) at 450 nm, fibronectin production ([4]; 1×10^−5 M): 0.2090; Mean optical density (OD) at 450 nm, fibronectin production ([4]; 1×10^−6 M): 0.2225; Median optical density (OD) at 450 nm, fibronectin production ([4]; 1×10^−6 M): 0.2225; Effect on wound closure / wound healing (in words) (Swiss Albino mice): accelerated wound healing during the 24 to 48 hrs following treatment; Skin irritation or redness ([5]; 0.25% composition): no visible sign of any skin irritation or redness; Time for cell renewal, treated skin (RENEWAL) ([5]; 0.25% in hyaluronic acid (0.5% aqueous solution), upper inner arm, individual patients, listed as GA): 21 Days and 14 Days (2×) and 12 Days (2×) and 19 Days and 17 Days |
| O=C(O)c1ccccc1O [salicylic acid] | strong cell proliferating activity especially at the lower concentrations; also recorded: all concentrations of salicylic acid had a significant effect on cell growth | 0.3916 | 0.5004 | 0.5110 | 0.4668 | 0.4690 |  |  |  |  |  |  |  |  |  |  |  |  |  |  |  |
| zeatin |  |  |  |  |  |  | 0.7726 | 0.7880 | 0.8716 | 0.8790 | 0.9770 | 0.9830 | strongly stimulated collagen production at medium concentrations; also recorded: medium concentrations of zeatin also stimulated collagen production | 0.7665 | 0.7665 | 0.8115 | 0.8115 | 0.7715 | 0.7715 | effective for stimulating fibronectin production in human fibroblasts; also recorded: all compounds stimulated fibronectin production | Cell proliferating activity on human keratinocytes (in words) ([2]; listed as t-zeatin): strong cell proliferating activity at all concentrations; also recorded: all concentrations of t-zeatin had a significant effect on cell growth; Mean optical density (OD) at 450 nm, fibronectin production ([4]; 1×10^−4 M): 0.2075; Median optical density (OD) at 450 nm, fibronectin production ([4]; 1×10^−4 M): 0.2075; Mean optical density (OD) at 450 nm, fibronectin production ([4]; 1×10^−5 M): 0.2110; Median optical density (OD) at 450 nm, fibronectin production ([4]; 1×10^−5 M): 0.2110; Mean optical density (OD) at 450 nm, fibronectin production ([4]; 1×10^−6 M): 0.1995; Median optical density (OD) at 450 nm, fibronectin production ([4]; 1×10^−6 M): 0.1995 |
